The data set is described as follows: in vitro. The settings on record: human, hela cells, % viability.
The viability is a read-out of living cells in per cent, often relative to untreated cells. For the molecule `CC(OC(=O)c1ccc2c(c1)C(=O)N(c1ccc(Cl)cc1)C2=O)C(=O)c1ccccc1` (centres unmarked) [CBK156661], the viability at 28.5 h, 10 µM is 111%.

Regarding `COc1ccccc1OCC(=O)N1CCC2(CCNC2)C1` (centres unmarked) [CBK156703C], the viability at 28.5 h, 10 µM was determined as 99.6%.

Consider `O=C(c1ccc2[nH]c(=O)[nH]c2c1)N1CCC2(CCNC2)C1` (centres unmarked) [CBK156747C], for which the viability at 28.5 h, 10 µM came out at 101%.

`CCCCCCOC(=O)c1ccc2c(c1)C(=O)N(c1cccc(N)c1)C2=O` [CBK157034]: the viability at 28.5 h, 10 µM was found to be 106%.

Regarding `O=C(Nc1ncc(-c2ccccc2)s1)c1cccc([N+](=O)[O-])c1` [CBK157055], the viability at 28.5 h, 10 µM came to 92.7%.

In the case of `CC(OC(=O)c1ccc2c(c1)C(=O)N(c1ccc([N+](=O)[O-])cc1)C2=O)C(=O)c1ccccc1` (centres unmarked) [CBK157061], the viability at 28.5 h, 10 µM is 94.3%.

As to `COc1cccc(C(=O)N2CCN(S(=O)(=O)c3ccc([N+](=O)[O-])cc3)CC2)c1` [CBK157533], the viability at 28.5 h, 10 µM stood at 96.9%.

In the case of `O=[N+]([O-])c1ccc(N2CCN(S(=O)(=O)c3ccc4ccccc4c3)CC2)cc1` [CBK157773], the viability at 28.5 h, 10 µM is 93.6%.

For the molecule `CN1CCN(CCCNC(=O)c2ccc(-c3ccc(C(=O)N(C)C)cc3)nc2)CC1` [CBK158343], the viability at 28.5 h, 10 µM was found to be 95%.

For `CC1CCN(Cc2ccc(-c3ccc(CC(=O)NCCc4ccc(O)cc4)cn3)cc2)CC1` [CBK158384], the viability at 28.5 h, 10 µM worked out at 91.9%.

With `CC1CCN(Cc2ccc(-c3ccc(CC(=O)NCc4ccc(C#N)cc4)cn3)cc2)CC1` [CBK158409], the viability at 28.5 h, 10 µM was 93.8%.

On to `O=C(c1ccc(-c2cncc(-c3cc4ccccc4[nH]3)c2)cc1)N1CCOCC1` [CBK158419T], for which the viability at 28.5 h, 10 µM stood at 76.1%.

As for `Nc1ncc(-c2ccc(C(=O)N3CCOCC3)cc2)cc1C(=O)NCc1c(F)cccc1F` [CBK158569], the viability at 28.5 h, 10 µM amounted to 80.6%.

Regarding `CN(C)CC(C)(C)CNC(=O)c1cc(-c2ccc(C(=O)N3CCOCC3)cc2)cnc1N` [CBK158574], the viability at 28.5 h, 10 µM was determined as 80.2%.

With `Nc1ncc(-c2ccc(C(=O)N3CCOCC3)cc2)cc1C(=O)NCCc1ccc(O)cc1` [CBK158577], the viability at 28.5 h, 10 µM was 92.5%.

With `CN1CCN(C(=O)c2cc(-c3ccc(C(=O)N4CCOCC4)cc3)cnc2N)CC1` [CBK158584], the viability at 28.5 h, 10 µM stood at 85.6%.

As to `Nc1ncc(-c2ccc(C(=O)N3CCOCC3)cc2)cc1C(=O)NCc1ccc(S(N)(=O)=O)cc1` [CBK158597], the viability at 28.5 h, 10 µM was found to be 105%.

For the molecule `CS(=O)(=O)c1ccc(CNC(=O)c2cc(-c3ccc(C(=O)N4CCOCC4)cc3)cnc2N)cc1` [CBK158599], the viability at 28.5 h, 10 µM is 93%.

With `CSCCCNC(=O)c1cncc(-c2ccc(C(=O)N3CCOCC3)cc2)c1` [CBK158610], the viability at 28.5 h, 10 µM was 92.7%.

For the molecule `O=C(NCc1ccc(Cl)c(Cl)c1)c1cncc(-c2ccc(C(=O)N3CCOCC3)cc2)c1` [CBK158612], the viability at 28.5 h, 10 µM came out at 98.2%.

Take `O=C(NCc1ccc2c(c1)OCO2)c1cncc(-c2ccc(C(=O)N3CCOCC3)cc2)c1` [CBK158614]: the viability at 28.5 h, 10 µM turned out to be 108%.

Turning to `O=C(NCCc1ccc(O)cc1)c1cncc(-c2ccc(C(=O)N3CCOCC3)cc2)c1` [CBK158620], the viability at 28.5 h, 10 µM was determined as 112%.

For the molecule `COc1cc(CNC(=O)c2cncc(-c3ccc(C(=O)N4CCOCC4)cc3)c2)cc(OC)c1OC` [CBK158632], the viability at 28.5 h, 10 µM was determined as 114%.

With `CCOC(=O)CCNC(=O)c1cncc(-c2ccc(C(=O)N3CCOCC3)cc2)c1` [CBK158645], the viability at 28.5 h, 10 µM turned out to be 92.6%.

As to `CCCC1CCN(CC2C=Cc3cc(-c4ccc(S(C)(=O)=O)cc4)ccc3O2)CC1` (centres unmarked) [CBK158647], the viability at 28.5 h, 10 µM is 86.2%.

Consider `CCc1ccc(CNC(=O)Cn2cnc(-c3ccc(CN4CCC(C)CC4)cc3)c2)cc1` [CBK158710T], for which the viability at 28.5 h, 10 µM was determined as 100%.

Take `Cc1onc(-c2ccccc2)c1C(=O)N1CCC(C(N)=O)CC1` [CBK158721]: the viability at 28.5 h, 10 µM stood at 84.4%.

For the molecule `CCN(CC)C(=O)CN(CCc1ccc(OC)c(OC)c1)C(=O)NCCN1CCOCC1` [CBK158734], the viability at 28.5 h, 10 µM was found to be 93.1%.

Turning to `CCN(CC)C(=O)CN(CCc1ccc(OC)c(OC)c1)C(=O)NCc1ccc(Cl)cc1` [CBK158742], the viability at 28.5 h, 10 µM is 110%.

Regarding `COc1ccc(CCN(Cc2ccc(Cl)c(Cl)c2)C(=O)Nc2cccnc2)cc1OC` [CBK158797], the viability at 28.5 h, 10 µM was 96.1%.

Consider `CCN(CC)CCN(C(=O)NCCCSC)C(C)c1ccc(OC)c(OC)c1` (centres unmarked) [CBK158803], for which the viability at 28.5 h, 10 µM turned out to be 94.3%.

As to `CC(=O)Nc1ccc(-c2ccc(C(=O)NCc3cccnc3)cn2)cc1` [CBK158842], the viability at 28.5 h, 10 µM was determined as 96.9%.

As to `CCN(CC)C(=O)c1ccc(-c2ccc(NC(C)=O)cc2)nc1` [CBK158850], the viability at 28.5 h, 10 µM stood at 101%.

For `COc1cc(CNC(=O)c2ccc(-c3ccc(NC(C)=O)cc3)nc2)cc(OC)c1OC` [CBK158851], the viability at 28.5 h, 10 µM worked out at 100%.

Consider `CC(=O)Nc1ccc(-c2ccc(C(=O)NC3CC3)cn2)cc1` [CBK158854], for which the viability at 28.5 h, 10 µM was determined as 84.9%.

Turning to `CC(=O)Nc1ccc(-c2ccc(C(=O)NCc3ccc(C(C)C)cc3)cn2)cc1` [CBK158857], the viability at 28.5 h, 10 µM turned out to be 101%.

Regarding `CC(=O)Nc1ccc(-c2ccc(C(=O)NCc3ccc(S(C)(=O)=O)cc3)cn2)cc1` [CBK158860], the viability at 28.5 h, 10 µM was 92.1%.

Consider `CCOC(=O)N1CCC(NC(=O)N(Cc2cccnc2)Cc2ccc3c(c2)OCO3)CC1` [CBK158897], for which the viability at 28.5 h, 10 µM is 95.4%.

As to `CSCCCNC(=O)N1CCN(CCc2ccccc2)CC1` [CBK158900], the viability at 28.5 h, 10 µM came out at 81.6%.

For the molecule `O=C(NCCN1CCOCC1)N1CCN(CCc2ccccc2)CC1` [CBK158908], the viability at 28.5 h, 10 µM came to 85.5%.

As to `COc1cc(CNC(=O)N2CCN(CCc3ccccc3)CC2)cc(OC)c1OC` [CBK158910], the viability at 28.5 h, 10 µM is 91.8%.

For `NC(=O)c1ccc(NC(=O)N2CCN(CCc3ccccc3)CC2)cc1` [CBK158924], the viability at 28.5 h, 10 µM is 95.3%.

Turning to `COc1cc(NC(=O)N2CCN(CCc3ccccc3)CC2)cc(OC)c1OC` [CBK158933], the viability at 28.5 h, 10 µM stood at 100%.

Regarding `O=C(NC1CCc2ccccc21)N1CCN(CCc2ccccc2)CC1` (centres unmarked) [CBK158936], the viability at 28.5 h, 10 µM came to 96.1%.

Regarding `CCOC(=O)N1CCC(NC(=O)N2CCN(CCc3ccccc3)CC2)CC1` [CBK158938], the viability at 28.5 h, 10 µM was 89.8%.

In the case of `CCN(CC)CCN(C(=O)NCCc1c[nH]c2ccc(OC)cc12)C(C)c1ccc(OC)c(OC)c1` (centres unmarked) [CBK158948], the viability at 28.5 h, 10 µM is 90.4%.

Consider `COc1ccc(C(C)N(CCN2CCOCC2)C(=O)NCc2cccc3ccccc23)cc1OC` (centres unmarked) [CBK158984], for which the viability at 28.5 h, 10 µM amounted to 96.4%.

Turning to `CCN(CC)CCN(Cc1ccc2c(c1)OCO2)C(=O)Nc1ccc2[nH]ccc2c1` [CBK159037], the viability at 28.5 h, 10 µM turned out to be 96.7%.

On to `COc1ccc(CN(CCCN2CCOCC2)C(=O)NCc2ccc(C#N)cc2)cc1OC` [CBK159125], for which the viability at 28.5 h, 10 µM turned out to be 89%.

As to `CCN(CC)c1ccc(NC(=O)N(CCCN2CCOCC2)Cc2ccc(OC)c(OC)c2)cc1` [CBK159168], the viability at 28.5 h, 10 µM was 91.1%.

Turning to `COc1ccc(CN(CCN(C)C)C(=O)NCc2ccc(Cl)cc2)cc1OC` [CBK159303], the viability at 28.5 h, 10 µM amounted to 87.7%.

In the case of `CCN(CC)c1ccc(CN(CCCN(C)C)C(=O)NCC2CCCCC2)cc1` [CBK159392], the viability at 28.5 h, 10 µM was determined as 106%.

As for `O=C(NCc1ccc(Cl)cc1)N(Cc1cccnc1)Cc1ccc2c(c1)OCO2` [CBK159449], the viability at 28.5 h, 10 µM worked out at 97%.

The values are drawn from PMC12040169 (PLOS Biology, 2025).
